US7319000B1, “Compositions and methods for eliciting immune or anti-infective responses” (priority 1992, dated 2008)
Read-outs that look alike come from different tables or passages of the source. Ends that are not written are not given here.

Tests used:
[1] = system: P815 target cells (H-2d)
[2] = system: spleen cells (CTL response to R15K); assay: CTL activity of spleen cells after a single id footpad injection (FIG. 4)
[3] = system: HIV-1 infection of primary human T cells; assay: HIV-1 infection of primary human T cells, reverse transcriptase assay; format: cell-based; conditions: peptide at 1 μg/ml; IIIB strain; RT activity after 9 days; FIG. 8
[4] = system: HIV-1 IIIB infection of human cells; format: cell-based
[5] = system: 3A9 target cells (H-2k); format: in vivo, Balb/c mice; conditions: effector cells: No Treatment

| Compound | % RT INHIBITION [4] | other results |
| --- | --- | --- |
| CC[C@H](C)[C@H](NC(=O)[C@@H](NC(=O)[C@@H](NC(=O)[C@H](Cc1ccccc1)NC(=O)[C@H](C)NC(=O)[C@H](CCCNC(=N)N)NC(=O)CNC(=O)[C@@H]1CCCN1C(=O)CNC(=O)[C@H](CCCNC(=N)N)NC(=O)[C@H](CCC(N)=O)NC(=O)[C@@H](NC(=O)[C@@H](N)CCCNC(=N)N)[C@@H](C)CC)C(C)C)[C@@H](C)O)C(=O)NCC(=O)N[C@@H](CCCCN)C(=O)O [Peptide R15K] | – | effect of anti-CD4 MAbs plus complement, or complement alone, on CTL cytotoxicity ([1]; effectors from mice immunized with monomeric peptide, FIG. 3A): no significant effect; effect of anti-CD8 MAbs and rabbit complement on CTL cytotoxicity ([1]; effectors from mice immunized with monomeric peptide, peptide treated or env expressing targets, FIG. 3A): abolished the cytotoxicity |
| CRIKQIINMWQGVGKAMYA [Peptide C19A] | – | CTL-inducing activity of helper T-cell peptide injected alone [2]: lacked CTL-inducing activity |
| HGEFAPGNYPALWSYA [Peptide B105] | – | in vivo CTL response against unmodified free synthetic peptide ([1]; same immunization protocol as Example 5): successfully generated |
| RAFVTIGK [Peptide R8K] | – | inhibition of HIV-1 infection of primary human T cells [3]: 66% |
| RIHIGPGARFLTTKN [Peptide D39, V3 loop peptide, strain MN(Y-L)] | 73.8% | – |
| RIHIGPGRAFFTTKN [Peptide D40, V3 loop peptide, strain MN(Y-F)] | 62.8% | – |
| RIHIGPGRAFYTTKN [Peptide D24, V3 loop peptide, strain MN] | 22.1% | – |
| RTPTGLGQSLYTTRS [Peptide D38, V3 loop peptide, strain ELI] | 33.7% | – |
| RVTLGPGRVWYTTGE [Peptide D29, V3 loop peptide, strain CDC4] | 0% | – |
| SIHIGPGRAFYATGD [Peptide D30, V3 loop peptide, strain SC] | 54.3% | – |
| SIRIGPGKVFTAKGG [Peptide D31, V3 loop peptide, strain Z3] | 0% | – |
| SISIGPGRAFFATTD [Peptide D34, V3 loop peptide, strain Z321] | 0% | – |
| SITKGPGRVIYATGQ [Peptide D28, V3 loop peptide, strain RF] | 0% | – |
| SIYIGPGRAFHTTGR [Peptide D32, V3 loop peptide, strain SF2] | 0% | – |
| SLSIGPGRAPRTREI [Peptide D25, V3 loop peptide, strain WMJ-3] | 42.4% | – |
| STPIGLGQALYTTRG [Peptide D35, V3 loop peptide, strain Z6] | 30.3% | – |
| STPIGLGQALYTTRI [Peptide D37, V3 loop peptide, strain JY1] | 0% | – |
| TYQRTRALVTG [Peptide B106, free synthetic peptide from Influenza virus nucleoprotein (aa 147-158)] | – | % Specific Lysis ([5]; target 3A9 (MHC-mis-matched, H-2k), E:T 80:1): 0%; % Specific Lysis ([5]; target 3A9 (MHC-mis-matched, H-2k), E:T 160:1): 0%; % Specific Lysis ([5]; target 3A9 + B106, E:T 20:1): 0%; % Specific Lysis ([5]; target 3A9 + B106, E:T 40:1): 0%; % Specific Lysis ([5]; target 3A9 + B106, E:T 80:1): 0%; % Specific Lysis ([5]; target 3A9 + B106, E:T 160:1): 0% |
| YNKRKRIHIGPGRAFYTTKNNIGC [Peptide D23, V3 loop peptide, strain MN] | 98.8% | – |
